The source of these data is patent US20240018145A1, “[…]-DEPENDENT EN[…] TREATING OR […]” (priority 2020, published 2024).

Molecules are shown by their SMILES. pEC50: −log10 of the molar value. Where two headings read alike, the source gives them in different places.

This test concerns FLU A (PR/8/34). Description: Flu A Neuraminidase Antiviral Assay. It is filed as cell-based.

Turning to `CN1C(=O)c2c(O)c(=O)ccn2N2C1CCCC2(C)c1ccncc1` (single isomer, unassigned) [Compound 31B, 7-hydroxy-1,5-dimethyl-1-(pyridin-4-yl)-1,2,3,4,4a,5-hexahydrodipyrido[1,2-b:2′,1′-f][1,2,4]triazine-6,8-dione], the pEC50 was less than 5.09.
For the compound `CCN1C(=O)c2c(O)c(=O)ccn2N2C1CCCC2(C)c1cccc(C2CC2)n1` (single isomer, unassigned) [Compound 55B, 1-(6-cyclopropylpyridin-2-yl)-5-ethyl-7-hydroxy-1-methyl-1,2,3,4,4a,5-hexahydrodipyrido[1,2-b:2′,1′-f][1,2,4]triazine-6,8-dione], the pEC50 is 7.73.
For the compound `CC1CC2N(C)C(=O)c3c(O)c(=O)ccn3N2C(C)(c2ccccc2)C1` (single isomer, unassigned) [Compound 43A, 7-hydroxy-1,3,5-trimethyl-1-phenyl-1,2,3,4,4a,5-hexahydrodipyrido[1,2-b:2′,1′-f][1,2,4]triazine-6,8-dione], the pEC50 is 5.93.
`COc1ccccc1C1CCCC2N(C)C(=O)c3c(O)c(=O)ccn3N12` (single isomer, unassigned) [Compound 19A, 7-hydroxy-1-(2-methoxyphenyl)-5-methyl-1,2,3,4,4a,5-hexahydrodipyrido[1,2-b:2′,1′-f][1,2,4]triazine-6,8-dione] gave a pEC50 of less than 5.09.
For the compound `CN1C(=O)c2c(O)c(=O)ccn2N2C(c3cc(F)ccc3OC(F)F)CCCC12` (single isomer, unassigned) [Compound 17B, 1-(2-(difluoromethoxy)-5-fluorophenyl)-7-hydroxy-5-methyl-1,2,3,4,4a,5-hexahydrodipyrido[1,2-b:2′,1′-f][1,2,4]triazine-6,8-dione], the negative-log EC50 (pEC50) is 6.99.
In turn, `CN1C(=O)c2c(O)c(=O)ccn2N2C(c3ccccc3Cl)C(CC(F)(F)F)CCC12` (single isomer, unassigned) [Compound 119B, 1-(2-chlorophenyl)-7-hydroxy-5-methyl-2-(2,2,2-trifluoroethyl)-1,2,3,4,4a,5-hexahydrodipyrido[1,2-b:2′,1′-f][1,2,4]triazine-6,8-dione] had a pEC50 of 8.57.
In turn, `CC1(c2ccccc2)CCCC2N(CC3CC4(CCC4)C3)C(=O)c3c(O)c(=O)ccn3N21` (single isomer, unassigned) [Compound 42A, 7-hydroxy-1-methyl-1-phenyl-5-(spiro[3.3]heptan-2-ylmethyl)-1,2,3,4,4a,5-hexahydrodipyrido[1,2-b:2′,1′-f][1,2,4]triazine-6,8-dione] showed a pEC50 of less than 5.09.
The compound `Cc1ccccc1C1C(CC(F)(C(F)(F)F)C(F)(F)F)CCC2N(C)C(=O)c3c(O)c(=O)ccn3N12` (single isomer, unassigned) [Compound 81A, 7-hydroxy-5-methyl-2-(2,3,3,3-tetrafluoro-2-(trifluoromethyl)propyl)-1-(o-tolyl)-1,2,3,4,4a,5-hexahydrodipyrido[1,2-b:2′,1′-f][1,2,4]triazine-6,8-dione] gave a negative-log EC50 (pEC50) of 7.72.
Compound `CN1C(=O)c2c(O)c(=O)ccn2N2C1CCCC2(C)c1ncccc1F` (single isomer, unassigned) [Compound 27B, 1-(3-fluoropyridin-2-yl)-7-hydroxy-1,5-dimethyl-1,2,3,4,4a,5-hexahydrodipyrido[1,2-b:2′,1′-f][1,2,4]triazine-6,8-dione] gave a pEC50 of 7.77.
Regarding `CN1C(=O)c2c(O)c(=O)ccn2N2C(c3ccccc3)C3CCC(C3)C12` (single isomer, unassigned) [Compound 9B, 4-hydroxy-6-methyl-11-phenyl-6a,7,8,9,10,11-hexahydro-3H-7,10-methanopyrido[1′,2′:1,6][1,2,4]triazino[2,3-a]azepine-3,5(6H)-dione], the pEC50 was 6.78.
In turn, `CCN1C(=O)c2c(O)c(=O)ccn2N2C(c3ccccc3Br)C(CC(F)(F)F)CCC12` (single isomer, unassigned) [Compound 106A, 1-(2-bromophenyl)-5-ethyl-7-hydroxy-2-(2,2,2-trifluoroethyl)-1,2,3,4,4a,5-hexahydrodipyrido[1,2-b:2′,1′-f][1,2,4]triazine-6,8-dione] had a pEC50 of 8.19.
`CCN1C(=O)c2c(O)c(=O)ccn2N2C(c3ccccc3)C(CC(F)(F)F)CCC12C` (single isomer, unassigned) [Compound 82A, 5-ethyl-7-hydroxy-4a-methyl-1-phenyl-2-(2,2,2-trifluoroethyl)-1,2,3,4,4a,5-hexahydrodipyrido[1,2-b:2′,1′-f][1,2,4]triazine-6,8-dione]: the pEC50 was less than 6.09.
The same measure, in the same setting: the value for `CN1C(=O)c2c(O)c(=O)ccn2N2C(c3ccccc3)CCCC12C` (single isomer, unassigned) [Compound 59A, 7-hydroxy-4a,5-dimethyl-1-phenyl-1,2,3,4,4a,5-hexahydrodipyrido[1,2-b:2′,1′-f][1,2,4]triazine-6,8-dione] was 5.14; that for `CN1C(=O)c2c(O)c(=O)ccn2N2C1CCCC2(C)c1ccc(F)cc1` (single isomer, unassigned) [Compound 26A, 1-(4-fluorophenyl)-7-hydroxy-1,5-dimethyl-1,2,3,4,4a,5-hexahydrodipyrido[1,2-b:2′,1′-f][1,2,4]triazine-6,8-dione] was 8.08; that for `CN1C(=O)c2c(O)c(=O)ccn2N2C(c3ccccc3)C(Cc3ccccc3)CCC12` (single isomer, unassigned) [Compound 117A, 2-benzyl-7-hydroxy-5-methyl-1-phenyl-1,2,3,4,4a,5-hexahydrodipyrido[1,2-b:2′,1′-f][1,2,4]triazine-6,8-dione] was 5.45.
Regarding `CCN1C(=O)c2c(O)c(=O)ccn2N2C1CCC1(CCC(F)(F)CC1)C2c1ccccc1` (single isomer, unassigned) [Compound 76A], the pEC50 was less than 6.09.
As for `CN1C(=O)c2c(O)c(=O)ccn2N2C(c3ccccc3)C(c3ccc(F)c(F)c3F)CCC12` (single isomer, unassigned) [Compound 85D, 7-hydroxy-5-methyl-1-phenyl-2-(2,3,4-trifluorophenyl)-1,2,3,4,4a,5-hexahydrodipyrido[1,2-b:2′,1′-f][1,2,4]triazine-6,8-dione], the pEC50 is 6.66.
Still for that read-out and setting: in the case of `CN1C(=O)c2c(O)c(=O)ccn2N2C1CCC2(C)c1ccccc1` (single isomer, unassigned) [Compound 61B, 6-hydroxy-1,4-dimethyl-1-phenyl-2,3,3a,4-tetrahydro-1H-pyrido[2,1-f]pyrrolo[1,2-b][1,2,4]triazine-5,7-dione] it was 5.56; in that of `CCN1C(=O)c2c(O)c(=O)cc(COC)n2N2C(c3ccccc3)C(CC(F)(F)F)CCC12` (stereo not shown) [Compound 131C, 5-ethyl-7-hydroxy-10-(methoxymethyl)-1-phenyl-2-(2,2,2-trifluoroethyl)-1,2,3,4,4a,5-hexahydrodipyrido[1,2-b:2′,1′-f][1,2,4]triazine-6,8-dione], less than 6.09; in that of `CN1C(=O)c2c(O)c(=O)ccn2N2C1CCCC2(C)c1ccccn1` (single isomer, unassigned) [Compound 30B, 7-hydroxy-1,5-dimethyl-1-(pyridin-2-yl)-1,2,3,4,4a,5-hexahydrodipyrido[1,2-b:2′,1′-f][1,2,4]triazine-6,8-dione], 5.28.
`CCN1C(=O)c2c(O)c(=O)ccn2N2C(c3ccccc3)C(CC(F)(F)F)CCC12C` (single isomer, unassigned) [Compound 82B, 5-ethyl-7-hydroxy-4a-methyl-1-phenyl-2-(2,2,2-trifluoroethyl)-1,2,3,4,4a,5-hexahydrodipyrido[1,2-b:2′,1′-f][1,2,4]triazine-6,8-dione] had a pEC50 of 8.64.
As to `CN1C(=O)c2c(O)c(=O)ccn2N2C(c3ccccc3)CCC12` (single isomer, unassigned) [Compound 60A, 6-hydroxy-4-methyl-1-phenyl-2,3,3a,4-tetrahydro-1H-pyrido[2,1-f]pyrrolo[1,2-b][1,2,4]triazine-5,7-dione], the pEC50 (MDCK, 48 h) was less than 5.09.
Turning to `CN1C(=O)c2c(O)c(=O)ccn2N2C(c3ccccc3)C(c3cccc(F)c3F)CCC12` (single isomer, unassigned) [Compound 116A, 2-(2,3-difluorophenyl)-7-hydroxy-5-methyl-1-phenyl-1,2,3,4,4a,5-hexahydrodipyrido[1,2-b:2′,1′-f][1,2,4]triazine-6,8-dione], the pEC50 is 5.21.
`CN1C(=O)c2c(O)c(=O)ccn2N2C(c3ccccc3)C(c3ccc(F)c(F)c3F)CCC12` (single isomer, unassigned) [Compound 85B, 7-hydroxy-5-methyl-1-phenyl-2-(2,3,4-trifluorophenyl)-1,2,3,4,4a,5-hexahydrodipyrido[1,2-b:2′,1′-f][1,2,4]triazine-6,8-dione] had a pEC50 of 8.01.
Take `CN1C(=O)c2c(O)c(=O)ccn2N2C(c3cc(F)ccc3OC(F)F)CCCC12` (single isomer, unassigned) [Compound 17A, 1-(2-(difluoromethoxy)-5-fluorophenyl)-7-hydroxy-5-methyl-1,2,3,4,4a,5-hexahydrodipyrido[1,2-b:2′,1′-f][1,2,4]triazine-6,8-dione]: the pEC50 was 5.45.
`Cc1ccccc1C1C(c2ccc(F)c(F)c2)CCC2N(C)C(=O)c3c(O)c(=O)ccn3N12` (single isomer, unassigned) [Compound 91B, 2-(3,4-difluorophenyl)-7-hydroxy-5-methyl-1-(o-tolyl)-1,2,3,4,4a,5-hexahydrodipyrido[1,2-b:2′,1′-f][1,2,4]triazine-6,8-dione] had a negative logarithm of the EC50 (pEC50) of 8.14.
Turning to `Cc1c(F)cccc1C1C(CC(F)(F)F)CCC2N(C)C(=O)c3c(O)c(=O)ccn3N12` (single isomer, unassigned) [Compound 80A, 1-(3-fluoro-2-methylphenyl)-7-hydroxy-5-methyl-2-(2,2,2-trifluoroethyl)-1,2,3,4,4a,5-hexahydrodipyrido[1,2-b:2′,1′-f][1,2,4]triazine-6,8-dione], the pEC50 was 7.22.
In turn, `CN1C(=O)c2c(O)c(=O)ccn2N2C1CCC1(CCC(F)(F)C1)C2c1ccccc1` (single isomer, unassigned) [Compound 68C, 3,3-difluoro-7′-hydroxy-5′-methyl-1′-phenyl-3′,4′,4a′,5′-tetrahydro-1′H-spiro[cyclopentane-1,2′-dipyrido[1,2-b:2′,1′-f][1,2,4]triazine]-6′,8′-dione] showed a pEC50 of 7.94.
